Here are results for 6 compounds from patent US10570168B2, “2′ and/or 5′ amino-acid ester phosphoramidate 3′-deoxy adenosine derivatives as anti- cancer compounds” (NuCana plc, priority 2014, dated 2020).

The pIC50 is the negative decadic logarithm of the IC50, by convention in mol/L.

One data set relates to HL-60 (TdT negative). Description: ATP (ViaLight plus) cytotoxicity assay. In kind it is cell-based, Human. The note with it: for (FD) fold difference compared to Cordycepin = Cordycepin IC50/ProTide IC50: HL-60; for pIC50: Homo sapiens. Here is the method:
(§1) Certain compounds of the invention were subjected to further studies to test the cytotoxic activity of certain compounds of the invention and also to measure their activity against 4 haematological cancer cell lines • TdT positive CEM (Human ALL) • TdT negative K562 (Human CML) • TdT negative H1-60 (Human ANLL) • RL (CRL-2261) non-HD lymphoma • The concentrations of the active metabolite dATP (Cordycepin triphosphate) in these cell lines was also measured. • The cytotoxic activity and the intracellular 3′-dATP concentrations were also studied in the presence of hENT1, Adenosine Kinase (AK) and Adenosine Deaminase pharmacological inhibitors in CEM and RL cancer cell lines. Said inhibitors that mimic known cancer resistance mechanisms. Methods Cell Culture
(§2) HL-60 (ATCC® CCL-240™), K562 (ATCC® CCL-243™), CCRF-CEM (ATCC® CRM-CCL-119™) and RL (ATCC® CRL-2261™) leukaemia cell lines, obtained from the American Type Culture Collection (ATCC), Middlesex. HL-60 and K562 cell lines are deoxynucleotidyl transferase-negative (TdT-ve), whereas CCRF-CEM cell line is TdT+ve.
(§3) HL-60, K562, CCRF-CEM and RL cell lines were cultured in RPMI-1640 medium (Sigma Aldrich, UK), which were supplemented with 10% Fetal Bovine Serum (FBS) (PAA Laboratories), 1% amphotericin B (5.5 ml) and 1% penicillin/streptomycin (5.5 ml) (PAA Laboratories) and grown in flasks at 37° C. incubator with 5% CO2.
(§4) The amount of ATP was used as a measurement of cell number and cell viability. ATP ViaLight™ plus assay kit (Lonza, USA: Product No. LT07-121) to detect ATP in cells treated in luminescence compatible 96 well plates (initial concentration of cells was 1×10^4 cells/well) with cordycepin and ProTides at concentrations of: 0, 0.1, 0.5, 1, 5 and 10 μM, followed by incubation for 72 hours at 37° C. incubator with 5% CO2. For inhibitor studies, 10 μM of NBTI or 1 μM EHNA or A-134974 was added and left for 5 minutes before adding the drugs (see section 5 for inhibitor details).
(§5) After incubation, 50 μl of cell lysis reagent was added to the 96 well plates to release the intracellular ATP, followed by 100 μl of ATP monitoring reagent (AMR). The luminescent values of each well were determined using FLUOstar OPTIMA microplate reader (BMG Labtech) which convert ATP into light by using luciferase enzyme. Therefore, the amount of luminescence produced was directly proportional to the amount of ATP.
(§6) The dose-response curves of cytotoxicity of the drugs was determined using non-linear regression analysis of percentage cell viability versus concentration and EC50 values were obtained. The intracellular assay was conducted in five replicates for each condition. Intracellular assay was determined using paired t test (two-tailed) analysis of 3′ATP/ATP concentration and p-values were obtained. For all the analysis, Prism Software program (GraphPad Software) was used and Microsoft Powerpoint® 2013 was used to plot the results.

In a further data set the test system is K562 (TdT negative). Nature of the data set: ATP (ViaLight plus) cytotoxicity assay. Type of data set: cell-based, Human. Particulars: for pIC50: Homo sapiens; for (FD) fold difference compared to Cordycepin = Cordycepin IC50/ProTide IC50: K562. Here is the method: as §1, §2, §3, §4, §5, §6
Data set [1] concerns CCRF-CEM (TdT positive CEM). Description: ATP (ViaLight plus) cytotoxicity assay. In kind it is cell-based, Human. Particulars: for pIC50: Homo sapiens, CCRF-CEM. Here is the method: as §1, §2, §3, §4, §5
Cell lines were treated in the same way as described above but before treatment with drugs, a number of inhibitors were added: • 1) Nitrobenzylthioinosine (NBTI) (Sigma-Aldrich, St. Louis, Mo., product # N2255) blocks nucleoside transporters • 2) EHNA hydrochloride (Sigma-Aldrich, St. Louis, Mo., product # E114) blocks adenosine deaminase • 3) Adenosine kinase inhibitor A-134974 dihydrochloride hydrate (Sigma-Aldrich, St. Louis, Mo., product # A2846): blocks adenosine kinase
as §6

For another data set, the system named is CCRF-CEM. Description: CellTiterGlo viability assay, initial screening. Particulars: Homo sapiens, read-out: IC50 (relative IC50). Type of data set: cell-based. In outline:
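CTG viability readout after ~72 hr compound exposure. 9 pts, 3.16-fold serial dilution in DMSO, final down to 19.9 nM; DMSO 0.5% final; duplicates; standard CO2 culture.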
For orientation: ATP-based viability assays read luminescence as a measure of living cells.

For data set [2], the system named is leukaemic stem cell (LSC) compartment within the KG1a cell line. Description: Immunophenotypic identification of the leukaemic stem cell compartment. In kind it is cell-based. The note with it: 72 h. On the procedure:
KG1a cells were cultured for 72 h in the presence of a wide range of concentrations of each compound assayed. Cells were then harvested and labelled with a cocktail of anti-lineage antibodies (PE-cy7), anti-CD34 (FITC), anti-CD38 (PE) and anti-CD123 (PERCP cy5). The sub-population expressing a LSC phenotype were subsequently identified and were expressed as a percentage of all viable cells left in the culture. The percentages of stem cells remaining were then plotted on a dose-response graph and the effects of the compounds were compared with each other, and with the parent nucleoside.
The data obtained in these experiments were evaluated using one way ANOVA. All data was confirmed as Gaussian or a Gaussian approximation using the omnibus K2 test. LD50 values were calculated from the non-linear regression and line of best-fit analysis of the sigmoidal dose-response curves. All statistical analyses were performed using Graphpad Prism 6.0 software (Graphpad Software Inc., San Diego, Calif.).

In the next data set the test system is KG1a cells. Nature of the data set: Annexin V/propidium iodide in vitro apoptosis assay (LD50). In kind it is cell-based. The note with it: 72 h.
The mark [3] stands for this setting: CEM, with AK (adenosine kinase inhibitor A-134974, 1 μM).
[4] abbreviates: CEM, with EHNA 1 μM (adenosine deaminase blocker).
[5] abbreviates: CEM, with NBTI 10 μM (nucleoside transporter blocker).

pIC50: −log10 of the molar value. Where two headings read alike, the source gives them in different places.

Protocol for KG1a cells: The KG1a cell line was maintained in RPMI medium (Invitrogen, Paisley, UK) supplemented with 100 units/ml penicillin, 100 μg/ml streptomycin and 20% foetal calf serum. Cells were subsequently aliquoted (10^5 cells/100 μl) into 96-well plates and were incubated at 37° C. in a humidified 5% carbon dioxide atmosphere for 72 h in the presence of nucleoside analogues and their respective proTides at concentrations that were experimentally determined for each series of compounds. In addition, control cultures were carried out to which no drug was added. Cells were subsequently harvested by centrifugation and were analyzed by flow cytometry using the Annexin V assay.
Cultured cells were harvested by centrifugation and then resuspended in 195 μl of calcium-rich buffer. Subsequently, 5 μl of Annexin V (Caltag Medsystems, Botolph Claydon, UK) was added to the cell suspension and cells were incubated in the dark for 10 mins prior to washing. Cells were finally resuspended in 190 μl of calcium-rich buffer together with 10 μl of propidium iodide. Apoptosis was assessed by dual-colour immunofluorescent flow cytometry as described previously.
The data obtained in these experiments were evaluated using one way ANOVA. […] LD50 values were calculated from the non-linear regression and line of best-fit analysis of the sigmoidal dose-response curves. […]

For `C[C@H](NP(=O)(OC[C@@H]1C[C@@H](O)[C@H](n2cnc3c(N)ncnc32)O1)Oc1cccc2ccccc12)C(=O)OCc1ccccc1` (stereo partly drawn) [B, (2S)-benzyl 2-(((((2S,4R,5R)-5-(6-amino-9H-purin-9-yl)-4-hydroxytetrahydrofuran-2-yl)methoxy)(naphthalen-1-yloxy)phosphoryl)amino)propanoate], the “(FD) fold difference compared to Cordycepin = Cordycepin IC50/ProTide IC50” value in the data set on HL-60 (TdT negative) is reported as “(4)”. The pIC50 is 5.59 in the data set with HL-60 (TdT negative) (HL-60, 72 h); 6.68 in the data set on K562 (TdT negative) (K562, 72 h); 6.89 in data set [1] (72 h, CEM (TdT+ve), 72 hours); 6.05 in data set [1] (CEM, Control (no inhibitor)); 5.89 in data set [1] (setting [3]); 5.89 in data set [1] (setting [4]). In addition, the pIC50 in data set [1] (setting [5]) was 5.85; in the data set with CCRF-CEM (72 h), 5.30 to 7.00. In addition, the “(FD) fold difference compared to control” value in data set [1] (CEM, IC50 with AK inhibitor) is “(1)”; in data set [1] (CEM, IC50 with EHNA), “(1)”; in data set [1] (CEM, IC50 with NBTI), “(1)”.
For `Nc1ncnc2c1ncn2[C@@H]1O[C@H](COP(=O)(NCC(=O)OCc2ccccc2)Oc2ccccc2)C[C@H]1O` (stereo partly drawn) [C, Benzyl 2-(((((2S,4R,5R)-5-(6-amino-9H-purin-9-yl)-4-hydroxytetrahydrofuran-2-yl)methoxy)(phenoxy)phosphoryl)amino)acetate], in the data set with CCRF-CEM (72 h), the pIC50 is 4.82 to 5.30.
Turning to `C[C@H](NP(=O)(OC[C@@H]1CC(O)[C@H](n2cnc3c(N)ncnc32)O1)Oc1ccccc1)C(=O)OCc1ccccc1` (stereo partly drawn) [Compound A, 3′-deoxyadenosine-5′-O-[phenyl(benzyloxy-L-alaninyl)] phosphate], the “(FD) fold difference compared to Cordycepin = Cordycepin IC50/ProTide IC50” value was “(3)” in the data set with HL-60 (TdT negative), “(5)” with K562 (TdT negative) and “(22)” in data set [1] (CEM (TdT+ve)). Moreover, the pIC50 with HL-60 (TdT negative) (HL-60, 72 h) is 5.34; in the data set with K562 (TdT negative) (K562, 72 h), 5.62; in data set [1] (72 h, CEM (TdT+ve), 72 hours) it was 6.06; in data set [1] (CEM, Control (no inhibitor)) it was 5.85; in data set [1] (setting [3]), 5.44; in data set [1] (setting [4]), 5.51. Moreover, the negative logarithm of the IC50 (pIC50) in data set [1] (setting [5]) is 5.70; in the data set with CCRF-CEM (72 h), 5.30 to 7.00. For the same compound, the “(FD) fold difference compared to control” value is “(3)” in data set [1] (CEM, IC50 with AK inhibitor); “(2.2)” in data set [1] (CEM, IC50 with EHNA); “(1)” in data set [1] (CEM, IC50 with NBTI). For the same compound, the “reduction of LSCs as a proportion of the cancer cells in culture (ability to target LSCs)” value in data set [2] (Lin−/CD34+/CD38−/CD123+) is on record as “preferentially target cancer stem cells”. Moreover, the “LSC targeting compared with the parent nucleoside” value in data set [2] (for compound A at 1 mM and above) was “significantly greater than that of the parent compound”. Further, the “in vitro drug sensitivity / potency (LD50 comparison, FIG. 1)” value in the data set on KG1a cells is reported as “increased in vitro potency when compared to Cordycepin”.
For the compound `Nc1ncnc2c1ncn2[C@@H]1O[C@H](CO)C[C@H]1O` [Cordycepin, 3′-deoxyadenosine, reference compound], the pIC50 was 4.94 in the data set on HL-60 (TdT negative) (HL-60, 72 hours, read-out: IC50); 4.96 in the data set with K562 (TdT negative) (K562, 72 hours, read-out: IC50); 4.71 in data set [1] (72 h, CEM (TdT+ve), 72 hours, read-out: IC50); 4.94 in data set [1] (CEM, Control (no inhibitor), read-out: IC50); 4.53 in data set [1] (CEM, with AK (adenosine kinase inhibitor A-134974, 1 μM), read-out: IC50); 6.15 in data set [1] (CEM, with EHNA 1 μM (adenosine deaminase blocker), read-out: IC50). The pIC50 in data set [1] (CEM, with NBTI 10 μM (nucleoside transporter blocker), read-out: IC50) was 4.24; in the data set on CCRF-CEM (72 hr), 4.00 to 4.82. Further, the “(FD) fold difference compared to control” value is “(3)” in data set [1] (CEM, IC50 with AK inhibitor) and “(5)” in data set [1] (CEM, IC50 with NBTI).
Turning to `COC(=O)C(C)(C)NP(=O)(OC[C@@H]1C[C@@H](O)[C@H](n2cnc3c(N)ncnc32)O1)Oc1cccc2ccccc12` (stereo partly drawn) [E, Methyl 2-(((((2S,4R,5R)-5-(6-amino-9H-purin-9-yl)-4-hydroxytetrahydrofuran-2-yl)-methoxy)(naphthalen-1-yloxy)phosphoryl)amino)-2-methylpropanoate], the “(FD) fold difference compared to Cordycepin = Cordycepin IC50/ProTide IC50” value with HL-60 (TdT negative) is “(1)”; in the data set on K562 (TdT negative), “(1)”; in data set [1] (CEM (TdT+ve)) it was “(2)”. Further, the pIC50 in the data set on HL-60 (TdT negative) (HL-60, 72 h) is 4.99; with K562 (TdT negative) (K562, 72 h), 4.86; in data set [1] (72 h, CEM (TdT+ve), 72 hours), 5.00; in data set [1] (CEM, Control (no inhibitor)), 5.00; in data set [1] (setting [3]), 4.99; in data set [1] (setting [4]), 4.87. Moreover, the pIC50 is 4.77 in data set [1] (setting [5]) and 4.00 to 4.82 in the data set with CCRF-CEM (72 h). The “(FD) fold difference compared to control” value in data set [1] (CEM, IC50 with AK inhibitor) is on record as “(1)”; in data set [1] (CEM, IC50 with EHNA), “(1)”; in data set [1] (CEM, IC50 with NBTI) it was “(2)”.
With `CCOC(=O)CCc1ccccc1OP(=O)(N[C@@H](C)C(=O)OCc1ccccc1)OC[C@@H]1C[C@@H](O)[C@H](n2cnc3c(N)ncnc32)O1` (stereo partly drawn) [F, (2S)-benzyl 2-(((((2S,4R,5R)-5-(6-amino-9H-purin-9-yl)-4-hydroxytetrahydrofuran-2-yl)methoxy)(2-(3-ethoxy-3-oxopropyl)phenoxy)phosphoryl)amino)propanoate], the “(FD) fold difference compared to Cordycepin = Cordycepin IC50/ProTide IC50” value in the data set with HL-60 (TdT negative) is listed as “(1)”; with K562 (TdT negative), “(2)”; in data set [1] (CEM (TdT+ve)) it was “(5)”. Moreover, the pIC50 is 5.08 in the data set on HL-60 (TdT negative) (HL-60, 72 h); 5.20 in the data set with K562 (TdT negative) (K562, 72 h); 5.37 in data set [1] (72 h, CEM (TdT+ve), 72 hours).
